The source made the active and inactive calls.
Assays:
[1] = intracellular Trypanosoma cruzi inhibitors in host cells – cell-based, plate reader, cherry-pick samples, set 3, dose response (AID 651818); assay type: functional;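 also: compounds incubated with infected cells for about four days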
Aminopeptidase N = target: T1, Aminopeptidase N (Plasmodium falciparum FcB1/Columbia, UniProt O96935); assay: malaria alanyl aminopeptidase activity blockers – biochemical, fluorogenic H-Leu-NHMec substrate, 1536-well (AID 1445); design: species or system Plasmodium falciparum 3D7, 3D7
T1 sequence (O96935 whole entry): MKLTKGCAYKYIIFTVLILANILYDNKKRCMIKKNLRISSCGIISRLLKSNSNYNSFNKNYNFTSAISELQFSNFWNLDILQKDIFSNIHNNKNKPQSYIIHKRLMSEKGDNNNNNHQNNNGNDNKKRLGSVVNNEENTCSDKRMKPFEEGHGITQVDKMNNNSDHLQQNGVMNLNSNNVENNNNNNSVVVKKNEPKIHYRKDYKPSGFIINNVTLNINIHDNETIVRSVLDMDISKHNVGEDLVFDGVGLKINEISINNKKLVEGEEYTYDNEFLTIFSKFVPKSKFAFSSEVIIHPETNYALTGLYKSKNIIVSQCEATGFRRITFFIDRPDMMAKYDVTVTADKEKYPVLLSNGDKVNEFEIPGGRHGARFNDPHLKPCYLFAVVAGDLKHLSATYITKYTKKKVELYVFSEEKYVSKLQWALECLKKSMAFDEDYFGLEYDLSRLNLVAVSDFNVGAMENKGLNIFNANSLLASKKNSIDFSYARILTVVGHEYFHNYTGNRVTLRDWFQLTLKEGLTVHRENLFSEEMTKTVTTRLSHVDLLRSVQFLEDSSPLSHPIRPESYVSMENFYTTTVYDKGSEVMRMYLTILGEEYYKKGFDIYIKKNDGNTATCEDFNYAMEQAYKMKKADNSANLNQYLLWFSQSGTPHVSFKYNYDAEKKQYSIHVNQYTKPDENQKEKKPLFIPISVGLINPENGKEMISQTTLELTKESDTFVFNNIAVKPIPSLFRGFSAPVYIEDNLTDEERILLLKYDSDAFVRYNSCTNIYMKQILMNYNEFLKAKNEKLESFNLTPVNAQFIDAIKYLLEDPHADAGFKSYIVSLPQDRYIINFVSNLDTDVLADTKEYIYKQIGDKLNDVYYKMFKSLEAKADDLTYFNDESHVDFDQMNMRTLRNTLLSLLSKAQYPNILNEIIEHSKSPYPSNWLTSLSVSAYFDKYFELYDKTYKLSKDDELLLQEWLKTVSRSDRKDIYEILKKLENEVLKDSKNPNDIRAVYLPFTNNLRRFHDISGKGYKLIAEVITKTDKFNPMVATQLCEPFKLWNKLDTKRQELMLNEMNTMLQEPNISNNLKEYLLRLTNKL

[2] = reduced cellular PGC1a acetyl-lysine signal – cell-based, cherry-picked samples, dose response (AID 720514); assay type: functional;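 also: potency may reflect raised or lowered acetylation signal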
[3] = reduction of Shn3 3'UTR-driven luciferase in osteoblasts – cell-based, Clone20 osteoblasts, firefly luciferase, cherry-picked, dose response (AID 624132); assay type: functional;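 also: firefly luciferase luminescence from reporter carrying the Shn3 3'UTR in osteoblasts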
[4] = loss of viability in HepG2 cells – cell-based, CellTiter-Glo, cherry-picked, cytotoxicity control for Shn3 inhibitor project, dose response (AID 624134); assay type: functional
[5] = non-specific 3'UTR reporter inhibition in Clone20-Shn3RL – cell-based, Renilla luciferase, cherry-picked, counter-screen for Shn3 inhibitor project, dose response (AID 624133); assay type: functional
Paired box protein Pax-8 = Paired box protein Pax-8 (Homo sapiens, UniProt Q06710); assay: PAX8 transcriptional activity inhibition in RMG-I – RMG-I cells, luciferase, cherry-pick, dose response (AID 687027); assay type: functional, cell-based;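 also: luciferase reporter driven by Pax8 target thyroperoxidase promoter measured by SteadyGlo luminescence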
[6] = THP-1 cell cytotoxicity, dose response, cytotoxicity control for non-replicating M. tuberculosis project (AID 489025); assay type: functional
cells [7] = assay type: functional
[8] = Luminescence Cell-Based Dose Confirmation HTS to Identify Activators of 5'UTR Stem-Loop Driven Alpha-Synuclein mRNA Translation in H4 Neuroglioblastoma Cells. [Related pubchem assays: 1829 (Project Summary), 1814 (Primary HTS)]; assay type: functional
[9] = Luminescence Cell-Based Dose Response HTS to Identify Activators of Luciferase Translation or Activity in H4 […] Cells. [Related pubchem assays: 1829 (Project Summary), 1814 (Primary HTS)]; assay type: functional
cells [10] = assay type: functional, cell-based
H4 = assay: Luminescence Cell-Based Dose Response HTS to Identify Activators of 5'UTR Stem-Loop Driven Prion Protein mRNA Translation in H4 Neuroglioblastoma Cells. [Related pubchem assays: 1829 (Project Summary), 1814 (Primary HTS)]; assay type: functional; details: Homo sapiens
cells [11] = assay type: functional, cell-based; remark: listed apart in the source
[12] = blockers of HIV-1 envelope-mediated cell-cell fusion – cherry-pick, dose response (AID 652057); assay type: functional, cell-based
[13] = HIV-1 AD8 envelope cell-cell fusion blockers – cherry-pick, dose response (AID 652062); assay type: functional, cell-based;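 also: luciferase signal from cell-cell fusion driven by HIV-1 clade B AD8 Env; potency is for inhibitors of fusion seen as a drop in luminescence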
[14] = target: T2, Replicative DNA helicase DnaB (Mycobacterium tuberculosis, UniProt P9WMR3); assay: DnaB intein splicing inhibitors, dose response, biochemical, cell-free fluorescence (AID 449749); assay type: functional
T2 sequence (P9WMR3 whole entry): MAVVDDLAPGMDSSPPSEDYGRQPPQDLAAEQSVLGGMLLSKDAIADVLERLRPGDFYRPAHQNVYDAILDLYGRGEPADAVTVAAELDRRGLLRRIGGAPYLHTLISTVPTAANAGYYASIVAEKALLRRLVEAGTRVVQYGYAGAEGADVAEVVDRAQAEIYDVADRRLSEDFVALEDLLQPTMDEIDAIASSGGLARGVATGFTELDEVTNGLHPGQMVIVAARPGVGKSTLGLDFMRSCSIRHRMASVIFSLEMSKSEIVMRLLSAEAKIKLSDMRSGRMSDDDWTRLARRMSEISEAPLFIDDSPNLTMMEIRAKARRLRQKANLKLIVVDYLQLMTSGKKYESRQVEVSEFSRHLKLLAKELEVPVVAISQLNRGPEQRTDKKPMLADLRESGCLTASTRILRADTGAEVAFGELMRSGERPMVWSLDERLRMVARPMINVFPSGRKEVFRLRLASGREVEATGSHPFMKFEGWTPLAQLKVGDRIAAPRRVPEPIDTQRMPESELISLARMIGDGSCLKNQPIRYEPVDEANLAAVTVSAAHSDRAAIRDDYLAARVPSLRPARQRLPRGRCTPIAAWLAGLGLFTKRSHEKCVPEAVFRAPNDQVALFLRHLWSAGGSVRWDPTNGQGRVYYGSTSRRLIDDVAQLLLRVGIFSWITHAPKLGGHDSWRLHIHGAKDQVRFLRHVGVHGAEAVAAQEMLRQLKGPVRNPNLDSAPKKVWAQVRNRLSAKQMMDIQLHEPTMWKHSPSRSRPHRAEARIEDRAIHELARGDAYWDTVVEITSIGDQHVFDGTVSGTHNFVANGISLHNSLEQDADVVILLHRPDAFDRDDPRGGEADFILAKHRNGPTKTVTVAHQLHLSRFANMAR

Protein RecA = target: T3, Protein RecA (Mycobacterium tuberculosis, UniProt P9WHJ3); assay: Fluorescence Cell-Free Homogeneous Dose Retest to Identify Inhibitors of RecA-Intein Splicing Activity. [Related pubchem assays (depositor defined):AID2097, AID2223, AID489010, AID492950]; assay type: functional
T3 sequence (P9WHJ3 whole entry): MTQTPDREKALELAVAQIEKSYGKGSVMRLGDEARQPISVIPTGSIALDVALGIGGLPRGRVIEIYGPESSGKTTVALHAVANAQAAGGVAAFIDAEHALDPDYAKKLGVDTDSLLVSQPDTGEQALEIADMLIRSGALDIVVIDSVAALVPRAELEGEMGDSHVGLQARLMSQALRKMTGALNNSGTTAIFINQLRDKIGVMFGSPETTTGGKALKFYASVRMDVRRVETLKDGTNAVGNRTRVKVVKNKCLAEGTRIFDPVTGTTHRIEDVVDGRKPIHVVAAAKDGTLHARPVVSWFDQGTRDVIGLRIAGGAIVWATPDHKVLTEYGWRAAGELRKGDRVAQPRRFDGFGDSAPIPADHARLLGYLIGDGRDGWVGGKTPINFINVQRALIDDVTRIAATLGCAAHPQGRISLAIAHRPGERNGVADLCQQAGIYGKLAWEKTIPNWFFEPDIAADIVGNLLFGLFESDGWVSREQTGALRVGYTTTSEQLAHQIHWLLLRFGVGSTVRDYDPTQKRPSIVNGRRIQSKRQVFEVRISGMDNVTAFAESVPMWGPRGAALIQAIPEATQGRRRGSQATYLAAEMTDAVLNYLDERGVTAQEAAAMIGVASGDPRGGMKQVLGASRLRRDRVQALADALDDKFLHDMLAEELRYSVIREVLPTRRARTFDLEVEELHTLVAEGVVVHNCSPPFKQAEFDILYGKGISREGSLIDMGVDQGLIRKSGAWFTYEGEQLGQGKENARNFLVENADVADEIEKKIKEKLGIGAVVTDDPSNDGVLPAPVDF

[15] = target: T4, Heat shock factor protein 1 (Mus musculus, UniProt P38532); assay: enhancement of HSF1-driven luciferase signal – cell-based, NIH3T3, luminescence, dose retest, confirmation (AID 435004); assay type: functional;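 also: stress induced by proteasome inhibitor MG132 added 30 min after compound; luciferase reporter driven by HSF1 response element in NIH3T3 cells; actives raise luminescence as potentiators of the MG132 stress response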
T4 sequence (P38532 whole entry): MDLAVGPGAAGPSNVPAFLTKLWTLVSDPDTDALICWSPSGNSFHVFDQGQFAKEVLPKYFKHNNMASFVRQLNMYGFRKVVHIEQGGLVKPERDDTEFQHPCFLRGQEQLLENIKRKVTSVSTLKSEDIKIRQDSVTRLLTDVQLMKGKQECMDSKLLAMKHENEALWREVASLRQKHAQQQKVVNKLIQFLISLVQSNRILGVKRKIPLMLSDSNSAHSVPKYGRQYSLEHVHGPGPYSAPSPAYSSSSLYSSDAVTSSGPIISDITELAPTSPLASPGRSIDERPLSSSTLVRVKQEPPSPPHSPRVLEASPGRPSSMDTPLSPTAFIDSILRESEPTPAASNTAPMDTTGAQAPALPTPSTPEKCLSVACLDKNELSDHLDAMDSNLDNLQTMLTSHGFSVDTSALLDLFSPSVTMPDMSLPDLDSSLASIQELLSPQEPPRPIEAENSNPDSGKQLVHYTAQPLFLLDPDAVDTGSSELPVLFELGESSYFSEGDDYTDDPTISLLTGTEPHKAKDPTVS

[16] = target: Heat shock protein HSP 90-alpha (Homo sapiens, UniProt P07900); assay type: functional, organism-based
[17] = viability of uninfected HEp-2 cells – cell-based, HTS, cytotoxicity control for RSV inhibitor project, dose response (AID 2410); assay type: functional; details: human respiratory syncytial virus
cells [18] = assay: cells

Paired box protein Pax-8, sequence (Q06710 whole entry): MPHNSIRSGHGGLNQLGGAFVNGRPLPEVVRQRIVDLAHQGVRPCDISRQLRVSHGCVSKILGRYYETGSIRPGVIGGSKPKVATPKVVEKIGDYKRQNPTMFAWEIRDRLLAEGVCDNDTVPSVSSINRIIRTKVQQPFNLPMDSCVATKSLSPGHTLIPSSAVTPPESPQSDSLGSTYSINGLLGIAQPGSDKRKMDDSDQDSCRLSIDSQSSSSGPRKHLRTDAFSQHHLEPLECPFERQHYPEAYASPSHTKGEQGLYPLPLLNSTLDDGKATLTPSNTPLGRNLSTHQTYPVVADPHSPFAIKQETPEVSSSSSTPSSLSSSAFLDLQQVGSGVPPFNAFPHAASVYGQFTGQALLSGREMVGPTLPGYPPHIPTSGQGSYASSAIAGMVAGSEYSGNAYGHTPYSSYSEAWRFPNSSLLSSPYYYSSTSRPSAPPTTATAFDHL

C[C@@H]1CCCCO[C@H](CN(C)Cc2ccc(C(F)(F)F)cc2)[C@@H](C)CN([C@H](C)CO)C(=O)c2cc(NC(=O)Nc3cccc4ccccc34)ccc2O1
AC50 [1]: 2.91 µM (active)

C[C@@H]1CCCCO[C@@H](CN(C)Cc2ccc(C(F)(F)F)cc2)[C@@H](C)CN([C@H](C)CO)C(=O)c2cc(NC(=O)NC3CCCCC3)ccc2O1
AC50 [1]: 6.76 µM (active)

CC(=O)N1C(=O)/C(=C2\SC(=S)N(NS(=O)(=O)c3ccc(C)cc3)C2=O)c2ccccc21
IC50 (Aminopeptidase N): 3.22 µM (active)

Cc1cc(C)c(NC(=O)c2ccc(S(=O)(=O)N(C)C)cc2)c(C)n1
AC50 [2]: 29.4 µM (active)

CC(=O)c1cccc(-c2csc3ncnc(Sc4nnnn4C)c23)c1
AC50 [3]: 4.72 µM (active) | AC50 [4]: 53.4 µM (active) | AC50 [5]: 15.5 µM (active) | AC50 (Paired box protein Pax-8): 3.1 µM (active)

COc1ccc(S(=O)(=O)NC2=NC(=O)/C(=C\c3ccco3)S2)cc1
IC50 (Aminopeptidase N): 99.1 µM (active)

O=c1c2cc(Cl)ccc2oc2nc3n(c(=O)c12)CCCS3
CC50 [6]: > 40 µM (active) | IC50 (cells [7]): 2.92 µM (active)

COc1ccc([C@H]2CC(=O)C=C(c3ccc(F)cc3OCc3ccccc3)C2)cc1OC
AC50 [3]: 7.36 µM (active) | AC50 [4]: > 70 µM (inactive) | AC50 [5]: 16.1 µM (active)

CCc1ccc(OCC(=O)Nc2ccncc2)c(Br)c1
EC50 [8]: 13.9 µM (active) | EC50 [9]: 17.4 µM (active) | EC50 (cells [10]): > 350 µM (not active) | EC50 (H4): > 120 µM (not active) | EC50 (cells [11]): > 350 µM (not active) | CC50 [6]: > 40 µM (active) | IC50 (cells [7]): 38.1 µM (active)

C[C@H](C(=O)N(C)C[C@@H]1OCc2ccccc2-c2ccccc2C(=O)N([C@H](C)CO)C[C@@H]1C)c1ccccc1
AC50 [12]: < 0.26 µM (active) | AC50 [13]: < 0.26 µM (active)

COc1ccc(NC(=O)N(C)C[C@H]2Oc3c(NS(=O)(=O)c4ccc(F)cc4)cccc3C(=O)N([C@@H](C)CO)C[C@H]2C)cc1
AC50 [1]: 4.14 µM (active)

Cc1cc(OCC(=O)NNC(=O)c2cnccn2)cc(C)c1Cl
AC50 [2]: 29.6 µM (active)

C[C@H](CO)N1C[C@H](C)[C@@H](CN(C)Cc2ccc(-c3ccccc3)cc2)Oc2ccc(NS(=O)(=O)c3ccccc3)cc2C1=O
AC50 [1]: 4.49 µM (active)

CC1=NN(c2cccc([N+](=O)[O-])c2)C(=O)C1
AC50 [14]: 14.4 µM (active) | EC50 (Protein RecA): 19.5 µM (active) | AC50 [4]: > 70 µM (inactive) | AC50 [5]: 29.5 µM (active)

C[C@H]1CN([C@@H](C)CO)C(=O)c2cccc(NC(=O)c3nc4ccccc4s3)c2O[C@@H]1CN(C)Cc1ccc(-c2ccccc2)cc1
AC50 [1]: 1.22 µM (active)

COc1cc(/C=C2\SC(=S)N(Nc3ncc(C(F)(F)F)cc3Cl)C2=O)ccc1O
EC50 [15]: 36 µM (active) | AC50 [16]: 12.4 µM (active)

CC(C)[C@H](NC(=O)N1CCn2c1nc1ccccc12)C(=O)NCc1ccccc1Cl
CC50 [17]: 46.3 µM (active) | IC50 (cells [18]): 35.8 µM (active)

COc1ccc(C(=O)NNC(=O)CSc2nnc(-c3ccc(O)cc3)n2C)cc1
IC50 (Aminopeptidase N): 56.8 µM (active)

C[C@@H]1CN([C@@H](C)CO)S(=O)(=O)c2ccc(-c3ccc(F)cc3)cc2O[C@H]1CN(C)C(=O)C1CCCCC1
AC50 [2]: 17.1 µM (active)

COCCOc1ccc(C(F)(F)F)cc1NC(=O)CN1C(=O)NC2(CCCc3ccccc32)C1=O (centres undefined)
AC50 [2]: 33.9 µM (active)

Cc1ccc(-n2c(=O)c3sccc3n(Cc3cc(=O)n4ccccc4n3)c2=O)cc1F
IC50 (cells [18]): 9.86 µM (active)
